Measurements taken from patent US12338256B2, “Aza-tetracyclic oxazepine compounds and uses thereof” (Genentech, Inc., priority 2022, dated 2025).

What was measured:
Assay type in all cases: cell-based
[1] = tested on: H1975 (KRAS wild type human lung adenocarcinoma cell line); experiment: KRAS 3D-Cell Proliferation Assay, H1975 (Example 503); conditions: Homo sapiens, NCI-H1975, 168 h, H1975 3D culture, 7 days, CellTiter-Glo 3D; read-out: Prolif H1975 3D ATP IC50
Summary of the method: (§1)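 3D culture, ultra-low attachment wells; RPMI-1640/10% FBS/2 mM L-glutamine. Overnight settle, then compound series, 0.3% DMSO final, 7 d, 37° C, 5% CO2. Readout: CellTiter-Glo 3D luminescence. % inhibition vs DMSO (0%) and 1 μM staurosporine (100%); IC50 via 4-parameter Hill.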

[2] = tested on: HPAC (homozygous mutant KRAS G12D human pancreatic cell line); experiment: KRAS 3D-Cell Proliferation Assay, HPAC (Example 503); conditions: Homo sapiens, HPAC, 168 h, HPAC 3D culture, 7 days, CellTiter-Glo 3D; read-out: Prolif HPAC 3D ATP IC50
Summary of the method: as §1

[3] = tested on: AsPC-1 (homozygous mutant KRAS G12D human pancreatic cell line); experiment: KRAS 3D-Cell Proliferation Assay, AsPC-1 (Example 503); conditions: Homo sapiens, ASPC1, 168 h, AsPC-1 3D culture, 7 days, CellTiter-Glo 3D; read-out: Prolif AsPC-1 3D ATP IC50
Experimental: Example 503: KRAS 3D-Cell Proliferation Assays. Cellular potencies of compounds are assessed by evaluating inhibition of proliferation in 3D cultures of homozygous mutant KRAS G12D human pancreatic cell lines (AsPC-1 and HPAC) as compared to a KRAS wild type human lung adenocarcinoma cell line (PC-9 and/or H1975). Cells are seeded into 384-well black round-bottom, ultra-low attachment assay plates in 50 uL cell growth medium (RPMI-1640 with 10% fetal bovine serum and 2 mM L-glutamine). After overnight incubation at 37° C. and 5% CO2, compounds solubilized in DMSO are added as dilution series to the wells in a total volume of 150 nL (0.3% DMSO final). The cells are incubated for 7 days at 37° C. and 5% CO2. Cell proliferation is quantitated by addition of 40 uL/well of CellTiter-GloÒ 3D (Promega), and the well contents are mixed 20× at high speed using liquid handling automation workstation (Bravo with 384-well head) and centrifuged at 1500 rpm for 2 minutes to eliminate bubbles. This reagent in combination with mechanical disruption releases the cellular ATP to promote activity in a luciferase-based enzyme/substrate chemiluminescent detection system. After a 30-minute incubation under ambient conditions with shaking and an additional 10 minutes without shaking, the luminescence is read on a plate reader (e.g., EnVision [PerkinElmer]). The results are normalized to percent inhibition based on the following control samples: DMSO (0% inhibition) and 1 μM staurosporine (100% inhibition). The normalized luminescence results are plotted against compound concentration, and the data are fit to a 4-parameter Hill equation to determine the IC50 values.

Cc1cc(N)cc(-c2nc3c4c(nc(OC[C@]56CCCN5CC(F)(F)C6)nc4c2F)N2C[C@H]4CC[C@H](N4)[C@H]2[C@H](C)O3)c1C(F)(F)F [Compound 69, 3-((5S,5aS,6S,9R)-12-(((R)-2,2-Difluorotetrahydro-1H-pyrrolizin-7a(5H)-yl)methoxy)-1-fluoro-5-methyl-5a,6,7,8,9,10-hexahydro-5H-4-oxa-3,10a,11,13,14-pentaaza-6,9-methanonaphtho[1,8-ab]heptalen-2-yl)-5-methyl-4-(trifluoromethyl)aniline]
IC50 [1]: 1280 nM | IC50 [2]: 6.42 nM | IC50 [3]: 21.3 nM

C[C@@H]1Oc2nc(-c3cc(N)c(F)cc3C(F)(F)F)c(F)c3nc(OC[C@@H]4CC[C@H]5COCCN54)nc(c23)N2C[C@H]3CC[C@H](N3)[C@@H]12 [Compound 70, 2-Fluoro-5-((5S,5aS,6S,9R)-1-fluoro-12-(((6S,8aS)-hexahydro-1H-pyrrolo[2,1-c][1,4]oxazin-6-yl)methoxy)-5-methyl-5a,6,7,8,9,10-hexahydro-5H-4-oxa-3,10a,11,13,14-pentaaza-6,9-methanonaphtho[1,8-ab]heptalen-2-yl)-4-(trifluoromethyl)aniline]
IC50 [1]: 1700 nM | IC50 [2]: 11 nM | IC50 [3]: 44.1 nM

Cc1c(F)c(N)cc(-c2nc3c4c(nc(OC[C@@]56CCCN5C[C@H](F)C6)nc4c2F)N2C[C@H]4CC[C@H](N4)[C@H]2[C@H](C)O3)c1CC(F)F [Compound 75, 4-(2,2-Difluoroethyl)-2-fluoro-5-((5S,5aS,6S,9R)-1-fluoro-12-(((2R,7aS)-2-fluorotetrahydro-1H-pyrrolizin-7a(5H)-yl)methoxy)-5-methyl-5a,6,7,8,9,10-hexahydro-5H-4-oxa-3,10a,11,13,14-pentaaza-6,9-methanonaphtho[1,8-ab]heptalen-2-yl)-3-methylaniline]
IC50 [1]: 797 nM | IC50 [2]: 2.77 nM | IC50 [3]: 5.2 nM

C[C@@H]1Oc2nc(-c3cc(N)cc(F)c3C(F)(F)F)c(F)c3nc(OC[C@@H]4CC[C@H]5COCCN54)nc(c23)N2C[C@H]3CC[C@H](N3)[C@@H]12 [Compound 77, 3-Fluoro-5-((5S,5aS,6S,9R)-1-fluoro-12-(((6S,8aS)-hexahydro-1H-pyrrolo[2,1-c][1,4]oxazin-6-yl)methoxy)-5-methyl-5a,6,7,8,9,10-hexahydro-5H-4-oxa-3,10a,11,13,14-pentaaza-6,9-methanonaphtho[1,8-ab]heptalen-2-yl)-4-(trifluoromethyl)aniline]
IC50 [1]: 358 nM | IC50 [2]: 2.79 nM | IC50 [3]: 11.9 nM

C[C@@H]1Oc2nc(-c3c(C(F)(F)F)cc(F)c(N)c3F)c(F)c3nc(OC[C@@]45CCCN4C[C@H](F)C5)nc(c23)N2C[C@H]3CC[C@H](N3)[C@@H]12 [Compound 90, 2,6-Difluoro-3-((5S,5aS,6S,9R)-1-fluoro-12-(((2R,7aS)-2-fluorotetrahydro-1H-pyrrolizin-7a(5H)-yl)methoxy)-5-methyl-5a,6,7,8,9,10-hexahydro-5H-4-oxa-3,10a,11,13,14-pentaaza-6,9-methanonaphtho[1,8-ab]heptalen-2-yl)-4-(trifluoromethyl)aniline]
IC50 [1]: 1140 nM | IC50 [2]: 7.3 nM | IC50 [3]: 18.9 nM

Cc1c(F)c(N)c(F)c(-c2nc3c4c(nc(OC[C@@]56CCCN5C[C@H](F)C6)nc4c2F)N2C[C@H]4CC[C@H](N4)[C@H]2[C@H](C)O3)c1C(F)(F)F [Compound 91, 2,6-Difluoro-3-((5S,5aS,6S,9R)-1-fluoro-12-(((2R,7aS)-2-fluorotetrahydro-1H-pyrrolizin-7a(5H)-yl)methoxy)-5-methyl-5a,6,7,8,9,10-hexahydro-5H-4-oxa-3,10a,11,13,14-pentaaza-6,9-methanonaphtho[1,8-ab]heptalen-2-yl)-5-methyl-4-(trifluoromethyl)aniline]
IC50 [1]: 953 nM | IC50 [2]: 1.25 nM | IC50 [3]: 1.3 nM

Cc1c(F)c(N)c(F)c(-c2nc3c4c(nc(OC[C@@H]5CC[C@H]6COCCN65)nc4c2F)N2C[C@H]4CC[C@H](N4)[C@H]2[C@H](C)O3)c1C(F)(F)F [Compound 96, 2,6-Difluoro-3-((5S,5aS,6S,9R)-1-fluoro-12-(((6S,8aS)-hexahydro-1H-pyrrolo[2,1-c][1,4]oxazin-6-yl)methoxy)-5-methyl-5a,6,7,8,9,10-hexahydro-5H-4-oxa-3,10a,11,13,14-pentaaza-6,9-methanonaphtho[1,8-ab]heptalen-2-yl)-5-methyl-4-(trifluoromethyl)aniline]
IC50 [1]: 982 nM | IC50 [2]: 3.69 nM | IC50 [3]: 5.8 nM

Cc1cc(N)c(F)c(-c2nc3c4c(nc(OC[C@@H]5CC[C@H]6COCCN65)nc4c2F)N2C[C@H]4CC[C@H](N4)[C@H]2[C@H](C)O3)c1C(F)(F)F [Compound 97, 2-Fluoro-3-((5S,5aS,6S,9R)-1-fluoro-12-(((6S,8aS)-hexahydro-1H-pyrrolo[2,1-c][1,4]oxazin-6-yl)methoxy)-5-methyl-5a,6,7,8,9,10-hexahydro-5H-4-oxa-3,10a,11,13,14-pentaaza-6,9-methanonaphtho[1,8-ab]heptalen-2-yl)-5-methyl-4-(trifluoromethyl)aniline]
IC50 [1]: 573 nM | IC50 [2]: 3.21 nM | IC50 [3]: 10.1 nM

C[C@@H]1Oc2nc(-c3cc(N)c(F)c(Cl)c3C(F)(F)F)c(F)c3nc(OC[C@@]45CCCN4C[C@H](F)C5)nc(c23)N2C[C@H]3CC[C@H](N3)[C@@H]12 [Compound 104, 3-Chloro-2-fluoro-5-((5S,5aS,6S,9R)-1-fluoro-12-(((2R,7aS)-2-fluorotetrahydro-1H-pyrrolizin-7a(5H)-yl)methoxy)-5-methyl-5a,6,7,8,9,10-hexahydro-5H-4-oxa-3,10a,11,13,14-pentaaza-6,9-methanonaphtho[1,8-ab]heptalen-2-yl)-4-(trifluoromethyl)aniline]
IC50 [1]: 221 nM | IC50 [2]: 0.65 nM | IC50 [3]: 1.4 nM

Cc1nc(N)cc(-c2nc3c4c(nc(OC[C@@H]5CC[C@H]6COCCN65)nc4c2F)N2C[C@H]4CC[C@H](N4)[C@H]2[C@H](C)O3)c1C(F)(F)F [Compound 112, 4-((5S,5aS,6S,9R)-1-fluoro-12-(((6S,8aS)-hexahydro-1H-pyrrolo[2,1-c][1,4]oxazin-6-yl)methoxy)-5-methyl-5a,6,7,8,9,10-hexahydro-5H-4-oxa-3,10a,11,13,14-pentaaza-6,9-methanonaphtho[1,8-ab]heptalen-2-yl)-6-methyl-5-(trifluoromethyl)pyridin-2-amine]
IC50 [1]: 1470 nM | IC50 [2]: 7.59 nM | IC50 [3]: 31.6 nM

Cc1c(F)c(N)cc(-c2nc3c4c(nc(OCC5(CN6CCOCC6)CC5)nc4c2F)N2C[C@H]4CC[C@H](N4)[C@H]2[C@H](C)O3)c1C(F)(F)F [Compound 118, 2-Fluoro-5-((5S,5aS,6S,9R)-1-fluoro-5-methyl-12-((1-(morpholinomethyl)cyclopropyl)methoxy)-5a,6,7,8,9,10-hexahydro-5H-4-oxa-3,10a,11,13,14-pentaaza-6,9-methanonaphtho[1,8-ab]heptalen-2-yl)-3-methyl-4-(trifluoromethyl)aniline]
IC50 [1]: 519 nM | IC50 [2]: 0.43 nM | IC50 [3]: 0.6 nM

Cc1c(F)c(N)cc(-c2nc3c4c(nc(OCC5(CN6CCOC[C@H]6C)CC5)nc4c2F)N2C[C@H]4CC[C@H](N4)[C@H]2[C@H](C)O3)c1C(F)(F)F [Compound 129, 2-Fluoro-5-((5S,5aS,6S,9R)-1-fluoro-5-methyl-12-((1-(((R)-3-methylmorpholino)methyl)cyclopropyl)methoxy)-5a,6,7,8,9,10-hexahydro-5H-4-oxa-3,10a,11,13,14-pentaaza-6,9-methanonaphtho[1,8-ab]heptalen-2-yl)-3-methyl-4-(trifluoromethyl)aniline]
IC50 [1]: 1150 nM | IC50 [2]: 1.1 nM | IC50 [3]: 1 nM

Cc1c(F)c(N)cc(-c2nc3c4c(nc(OC[C@@H]5[C@@H]6CCN5CCO6)nc4c2F)N2C[C@H]4CC[C@H](N4)[C@H]2[C@H](C)O3)c1C(F)(F)F [Compound 136, 5-((5S,5aS,6S,9R)-12-(((5S,8R)-4-Oxa-1-azabicyclo[3.2.1]octan-8-yl)methoxy)-1-fluoro-5-methyl-5a,6,7,8,9,10-hexahydro-5H-4-oxa-3,10a,11,13,14-pentaaza-6,9-methanonaphtho[1,8-ab]heptalen-2-yl)-2-fluoro-3-methyl-4-(trifluoromethyl)aniline]
IC50 [1]: 12300 nM | IC50 [2]: 67.5 nM | IC50 [3]: 200 nM
